Patent US4052436A, “Fluorene-2-acetic acids and derivatives, process and method of using” (E. R. Squibb & Sons, Inc., priority 1976, dated 1977)

Columns and labels:
[1] = anti-inflammatory activity of the optical isomers and dl mixture (test not specified); format: in vivo; conditions: α-methyl-fluorene-2-acetic acid, d and l optical isomers and dl mixture
[2] = tested on: carrageenin-induced edema in the hind paw of the rat; assay: carrageenin-induced edema assay (oral, hind paw); format: in vivo; conditions: 5 h, carrageenin injected into hind paw 2 h after dose, edema weighed 3 h after injection, read-out: ID50 (calculated dose that produces 50 percent inhibition of the edema)
Procedure: The anti-inflammatory activities of fluorene-2-acetic acid and its derivatives may be tested by a carrageenin-induced edema assay. Carrageenin injected into the footpad of rats produces an edematous condition, due mainly to vaso-active mediators. The compound to be tested is administered orally and assessed for inhibition of the edema.
The following examples show the anti-inflammatory activity of fluorene-2-acetic acid and 7-chloro-fluorene-2-acetic acid as determined by carrageenin-induced edema assay.
The procedure for these experiments is to first orally administer the test compound to a rat. Two hours later a solution of carrageenin is injected into the plantar surface of the hind paw of the rat. Three hours after the injection (5 hours after administration of the drug) the edema in the treated paw is measured by weighing the paws. To establish the baseline, the weight of the contralateral paw is determined. A dose-response curve is established, and the activity of the drug is recorded as the calculated dose that produces 50 percent inhibition (ID50) of the edema.

Compound | anti-inflammatory activity [1] | ED50 [2] [mg/kg]
CC(C(=O)O)c1ccc2c(c1)Cc1ccccc1-2 (single isomer, unassigned) [l, α-methyl-fluorene-2-acetic acid] | possesses anti-inflammatory activity | –
O=C(O)Cc1ccc2c(c1)Cc1ccccc1-2 [fluorene-2-acetic acid] | – | 67
CC(C(=O)O)c1ccc2c(c1)Cc1ccccc1-2 (single isomer, unassigned) [d, α-methyl-fluorene-2-acetic acid] | possesses anti-inflammatory activity | –
O=C(O)Cc1ccc2c(c1)Cc1cc(Cl)ccc1-2 [7-chloro-fluorene-2-acetic acid] | – | ~150
CC(C(=O)O)c1ccc2c(c1)Cc1ccccc1-2 (stereo not drawn) [dl mixture, α-Methyl fluorene-2-acetic acid] | possesses anti-inflammatory activity | –
